A word on the pIC50: it is −log10 of the IC50, conventionally taken in molar units.

pIC50: −log10 of the molar value.

The experiment has as its system Caco-2. Kind of experiment: Cytotoxicity against human Caco2 cells assessed as cell viability after 48 hrs by MTT assay. Format: functional, cell-based. As to conditions: Caco-2, 48 h. A general note: Tetrazolium assays rely on reduction of a dye to a coloured formazan, in cell work by metabolically active cells.
With `C[C@H]1[C@@H](CC(=O)N(CCNC(=O)[C@H](CCCCNC(=O)OC(C)(C)C)NC(=O)OCC2c3ccccc3-c3ccccc32)CC(=O)NCCN(CC(=O)OC(C)(C)C)C(=O)C[C@H]2O[C@@H]3O[C@@]4(C)CC[C@H]5[C@H](C)CC[C@@H]([C@H]2C)[C@@]35OO4)O[C@@H]2O[C@@]3(C)CC[C@H]4[C@H](C)CC[C@@H]1[C@@]24OO3`, the pIC50 is 5.10.
The same measure for `C[C@H]1[C@@H](CC(=O)N(CCNC(=O)[C@@H](N)CCCCN)CC(=O)NCCN(CC(=O)OC(C)(C)C)C(=O)C[C@H]2O[C@@H]3O[C@@]4(C)CC[C@H]5[C@H](C)CC[C@@H]([C@H]2C)[C@@]35OO4)O[C@@H]2O[C@@]3(C)CC[C@H]4[C@H](C)CC[C@@H]1[C@@]24OO3`: 5.45.
Under `C[C@H]1[C@@H](CC(=O)N(CCNC(=O)[C@H](CCCCN)NC(=O)OCC2c3ccccc3-c3ccccc32)CC(=O)OC(C)(C)C)O[C@@H]2O[C@@]3(C)CC[C@H]4[C@H](C)CC[C@@H]1[C@@]24OO3` stands 5.36; under `C[C@H]1[C@@H](CC(=O)N(CCNC(=O)OCC2c3ccccc3-c3ccccc32)CC(=O)OC(C)(C)C)O[C@@H]2O[C@@]3(C)CC[C@H]4[C@H](C)CC[C@@H]1[C@@]24OO3`, 5.27; under `C[C@H]1[C@@H](CC(=O)N(CCNC(=O)[C@@H](N)CCCCN)CC(=O)OC(C)(C)C)O[C@@H]2O[C@@]3(C)CC[C@H]4[C@H](C)CC[C@@H]1[C@@]24OO3`, 4.83.
Under `C[C@H]1[C@@H](CC(=O)N(CCNC(=O)OCC2c3ccccc3-c3ccccc32)CC(=O)NCCN(CC(=O)OC(C)(C)C)C(=O)C[C@H]2O[C@@H]3O[C@@]4(C)CC[C@H]5[C@H](C)CC[C@@H]([C@H]2C)[C@@]35OO4)O[C@@H]2O[C@@]3(C)CC[C@H]4[C@H](C)CC[C@@H]1[C@@]24OO3` stands 5.54.
On to `C[C@H]1[C@@H](CC(=O)N(CCNC(=O)[C@H](CCCCN)NC(=O)OCC2c3ccccc3-c3ccccc32)CC(=O)NCCN(CC(=O)OC(C)(C)C)C(=O)C[C@H]2O[C@@H]3O[C@@]4(C)CC[C@H]5[C@H](C)CC[C@@H]([C@H]2C)[C@@]35OO4)O[C@@H]2O[C@@]3(C)CC[C@H]4[C@H](C)CC[C@@H]1[C@@]24OO3`, for which the pIC50 was 5.69.
Under `C[C@H]1[C@@H](CC(=O)N(CCNC(=O)[C@H](CCCCNC(=O)OC(C)(C)C)NC(=O)OCC2c3ccccc3-c3ccccc32)CC(=O)OC(C)(C)C)O[C@@H]2O[C@@]3(C)CC[C@H]4[C@H](C)CC[C@@H]1[C@@]24OO3` stands 4.92; under `C[C@H]1[C@@H](O)O[C@@H]2O[C@@]3(C)CC[C@H]4[C@H](C)CC[C@@H]1[C@@]24OO3` [ARTENIMOL], 4.57.

The values above are taken from ChEMBL document CHEMBL2203083, “Facile synthesis and anticancer activity of C-10 non-acetal deoxoartemisinin dimers” (Bioorg Med Chem Lett, 2012).
